The source of these data is US7015351B2, “Reaction systems for making N-(phosphonomethyl) glycine compounds” (Monsanto Technology LLC, priority 2000, dated 2006).

For data set [1] the following is noted: cited from earlier work.
Data set [2] can be described thus: Solubility of N-(phosphonomethyl)glycine product in water / aqueous reaction mixture. Format: physicochemical. The following applies: oxidation operating temperatures from about 95 to about 105° C.

Regarding `CC(C)N.O=C(O)CNCP(=O)(O)O` [isopropylamine salt of N-(phosphonomethyl)glycine], the “solubility relative to the free acid” value in data set [1] (at 25° C.) is reported as “roughly 40 times”. In data set [2], the “concentration at which the product remains soluble” value is no less than 50 % by weight.

Consider `O=C(O)CNCP(=O)(O)O` [N-(phosphonomethyl)glycine], for which the “maximum N-(phosphonomethyl)glycine solubility” value in data set [1] (aqueous reaction mixture, temperatures of from about 60° C. to 90° C.) is given as “less than 6.5%”.
